From PubChem BioAssay (NCI)
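Exposure lasted 48 hours, with cells grown in 96-well plates and compounds tested at five concentrations. The concentration for 50% growth inhibition is given as GI50. TGI denotes the concentration required for complete inhibition of growth.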

Experiments:
Test in all cases: NCI-60 cell line screen, 48 h
[1] = test system: HL-60(TB) leukemia
[2] = test system: HOP-62 NSCLC
[3] = test system: HOP-92 NSCLC
[4] = test system: OVCAR-8 ovarian
[5] = test system: SF-295 CNS
[6] = test system: SF-539 CNS
[7] = test system: SK-MEL-2 melanoma
[8] = test system: SN12C renal
[9] = test system: SNB-75 CNS
[10] = test system: MDA-MB-435

Row | SMILES | TGI [1] [µM] | TGI [2] [µM] | TGI [3] [µM] | TGI [4] [µM] | TGI [5] [µM] | TGI [6] [µM] | TGI [7] [µM] | TGI [8] [µM] | TGI [9] [µM] | GI50 [2] [µM] | GI50 [3] [µM] | GI50 [4] [µM] | GI50 [5] [µM] | GI50 [6] [µM] | GI50 [7] [µM] | GI50 [8] [µM] | GI50 [1] [µM] | GI50 [10] [µM] | TGI [10] [µM] | GI50 [9] [µM]
1 | CN(C)CCC1(C2=CCCC2)CC/C(=C\c2ccccc2)C1=O (stereo not drawn) | 29.9 | 30 | 45.6 | 29.6 | 33.6 | 30.5 | 31 | 31.1 | 35.9 |  |  |  |  |  |  |  |  |  |  | 
2 | CC(Oc1ccc2cc(C(=O)c3ccccc3)c(=O)oc2c1)C(=O)O (stereo not drawn) | > 100 | > 100 | > 100 | > 100 | > 100 | > 100 |  | > 100 | > 100 |  |  |  |  |  |  |  |  |  |  | 
3 | CCC(/C(=N\Nc1c(Cl)cc(Cl)cc1Cl)c1ccccc1)n1ccnc1C (stereo not drawn) | 14.6 |  | 19.7 | 37.2 | 24.7 | 31.1 | 28.1 | 26.4 | 29.5 |  |  |  |  |  |  |  |  |  |  | 
4 | O=C([O-])c1ccccc1Nc1ccccc1[O-].[Ni+3].[OH3+].[OH3+].[OH3+] |  | > 100 | > 100 | > 100 | > 100 | > 100 | > 100 | > 100 |  | > 100 | 31.4 | > 100 | > 100 | > 100 | > 100 | > 100 |  |  |  | 
5 | CC(C)CC(=O)NS(=O)(=O)c1ccccc1 | > 100 | > 100 | > 100 | > 100 | > 100 | > 100 | > 100 | > 100 | > 100 |  |  |  |  |  |  |  |  |  |  | 
6 | Cc1cccc(NC(=O)CC#N)c1Cl | > 100 |  | > 100 |  | > 100 | > 100 | > 100 | > 100 | > 100 |  |  |  |  |  |  |  |  |  |  | 
7 | CSc1nc2c(c(=O)[nH]1)C(c1ccc(Cl)cc1)C1=C(N2)/C(=C/c2ccc(Cl)cc2)CNC1 (stereo not drawn) | 6.26 | 5.11 |  | 8.72 | 4.43 | 3.5 | 9.53 | 4.7 | 11.5 | 2.38 |  | 2.7 | 1.96 | 1.78 | 2.76 | 2.06 | 2.44 | 1.79 | 3.69 | 2.69
8 | COc1ccc(C#CCC(OC2OC(CO)C(O)C(O)C2O)C(O)c2ccc(OC)c(OC)c2)cc1OC (stereo not drawn) | > 100 | > 100 |  | > 100 | > 100 | > 100 | > 100 | > 100 | > 100 |  |  |  |  |  |  |  |  |  |  | 
9 | COc1ccc(CC2C3=C(CCCC3)CCN2C)cc1 (stereo not drawn) | > 100 | > 100 |  | > 100 | > 100 | > 100 | > 100 | > 100 | > 100 |  |  |  |  |  |  |  |  |  | > 100 | 
10 | CCSc1nc2n(c(=S)n1)CCN2C | 46.1 | 68.8 |  | 64.7 | 41.2 | 58.9 | 41.7 | 47.8 | 30.8 |  |  |  |  |  |  |  |  |  |  | 
